Assay results: article PMC9019904, “AD Informer Set: Chemical tools to facilitate Alzheimer's disease drug discovery” (Alzheimer's & Dementia : Translational Research & Clinical …, 2022)

Legend:
[1] = system: HMC3 (human microglia) cell line; assay: pHrodo-myelin phagocytosis/cell viability high content imaging assay: phagocytosis signal; format: cell-based
Summary of the method: (§1)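 Simultaneous phagocytosis/viability imaging at approximately 22 h after adding pHrodo-myelin. Rising intensity flagged early apoptosis and falling intensity later apoptosis.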

[2] = system: BV2 (mouse microglia) cell line; assay: as above; format: cell-based
Summary of the method: as §1

[3] = system: HMC3 (human microglia) cell line; assay: pHrodo-myelin phagocytosis/cell viability high content imaging assay: viability (cell count, nuclear area, nuclear intensity); details: 48 hours treatment
Summary of the method: (§2)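 10 μM single dose, 48 h total; pHrodo-myelin present final 20 h. Read-out: automated imaging, total cell count/well, mean nuclear intensity/cell. n=2, normalized to untreated wells, % control.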

[4] = system: BV2 (mouse microglia) cell line; assay: as above; details: 48 hours treatment
Summary of the method: as §2

[5] = HMC3, compound 10 uM, pHrodo-myelin
[6] = BV2, compound 10 uM, pHrodo-myelin
[7] = HMC3 cells, 10 uM compound, 48 hours treatment, pHrodo-myelin final 20 hours
[8] = BV2 cells, 10 uM compound, 48 hours treatment, pHrodo-myelin final 20 hours

## CCN1CCN(Cc2ccc(NC(=O)c3ccc(C)c(NC(=O)c4cncc(-c5cccs5)c4)c3)cc2C(F)(F)F)CC1 [UNC10303158A]
[1]; [5]
  4. Phagocytosis (% control): 0.0256 % control
[2]; [6]
  4. Phagocytosis (% control): 0.0043 % control
[3]; HMC3, compound 10 uM
  1. Cell count (% control): 36.9 % control
  2. Nuclear Area (% Control): 59.1 % Control
  3. Nuclear DNA Intensity (% control): 194.1 % control
[4]; BV2, compound 10 uM
  1. Cell count (% control): 10.2 % control
  2. Nuclear Area (% Control): 124.4 % Control
  3. Nuclear DNA Intensity (% control): 45.5 % control

## O=S(=O)(NC1CCNCC1)c1cc(S(=O)(=O)c2ccccc2)ccc1C(F)(F)F [UNC10302840A]
[1]; [5]
  4. Phagocytosis (% control): 90.9 % control
[2]; [6]
  4. Phagocytosis (% control): 189.7 % control
[3]; HMC3, compound 10 uM
  1. Cell count (% control): 108.8 % control
  2. Nuclear Area (% Control): 103.9 % Control
  3. Nuclear DNA Intensity (% control): 95.8 % control
[4]; BV2, compound 10 uM
  1. Cell count (% control): 104.4 % control
  2. Nuclear Area (% Control): 105.6 % Control
  3. Nuclear DNA Intensity (% control): 95.4 % control

## Cc1cc(NC(=O)Nc2ccccc2)n(-c2ccccc2)n1 [UNC10302880A]
[1]; [7]
  4. Phagocytosis (% control): 71.0 % control
[2]; [8]
  4. Phagocytosis (% control): 135.3 % control
[3]; HMC3 cells, 10 uM compound
  1. Cell count (% control): 145.4 % control
  2. Nuclear Area (% Control): 97.9 % Control
  3. Nuclear DNA Intensity (% control): 96.8 % control
[4]; BV2 cells, 10 uM compound
  1. Cell count (% control): 120.0 % control
  2. Nuclear Area (% Control): 104.5 % Control
  3. Nuclear DNA Intensity (% control): 102.6 % control

## COc1ccc(/C=C/C(=O)c2ccc(OC)cc2OC)cc1 [UNC10121790A]
[1]; [7]
  4. Phagocytosis (% control): 97.7 % control
[2]; [8]
  4. Phagocytosis (% control): 199.6 % control
[3]; HMC3 cells, 10 uM compound
  1. Cell count (% control): 66.8 % control
  2. Nuclear Area (% Control): 97.3 % Control
  3. Nuclear DNA Intensity (% control): 138.7 % control
[4]; BV2 cells, 10 uM compound
  1. Cell count (% control): 72.4 % control
  2. Nuclear Area (% Control): 107.4 % Control
  3. Nuclear DNA Intensity (% control): 104.1 % control

## O=c1ncn2nc(Sc3ccc(F)cc3F)ccc2c1-c1c(Cl)cccc1Cl [UNC10303093A]
[1]; [7]
  4. Phagocytosis (% control): 71.1 % control
[2]; [8]
  4. Phagocytosis (% control): 151.8 % control
[3]; HMC3 cells, 10 uM compound
  1. Cell count (% control): 125.9 % control
  2. Nuclear Area (% Control): 98.4 % Control
  3. Nuclear DNA Intensity (% control): 98.8 % control
[4]; BV2 cells, 10 uM compound
  1. Cell count (% control): 114.5 % control
  2. Nuclear Area (% Control): 100.4 % Control
  3. Nuclear DNA Intensity (% control): 110.5 % control

## Cc1c(COc2cc(OCc3cccc(C#N)c3)c(CN3C[C@H](O)C[C@@H]3C(=O)O)cc2Cl)cccc1-c1ccc2c(c1)OCCO2 [UNC10302972A]
[1]; [7]
  4. Phagocytosis (% control): 111.9 % control
[2]; [8]
  4. Phagocytosis (% control): 125.1 % control
[3]; HMC3 cells, 10 uM compound
  1. Cell count (% control): 116.0 % control
  2. Nuclear Area (% Control): 98.5 % Control
  3. Nuclear DNA Intensity (% control): 101.3 % control
[4]; BV2 cells, 10 uM compound
  1. Cell count (% control): 81.0 % control
  2. Nuclear Area (% Control): 106.7 % Control
  3. Nuclear DNA Intensity (% control): 113.8 % control

## C=C1C(=O)[C@]23[C@H](O)[C@H]1CC[C@H]2[C@@]12CO[C@]3(O)[C@@H](O)[C@@H]1C(C)(C)CC[C@@H]2O [UNC10302873A]
[1]; [5]
  4. Phagocytosis (% control): 0.0307 % control
[2]; [6]
  4. Phagocytosis (% control): 153.4 % control
[3]; HMC3, compound 10 uM
  1. Cell count (% control): 42.7 % control
  2. Nuclear Area (% Control): 59.1 % Control
  3. Nuclear DNA Intensity (% control): 208.5 % control
[4]; BV2, compound 10 uM
  1. Cell count (% control): 12.1 % control
  2. Nuclear Area (% Control): 120.3 % Control
  3. Nuclear DNA Intensity (% control): 80.8 % control

## Cl.N=C(CCl)NCCC[C@H](NC(=O)c1ccccc1)C(N)=O [UNC10303161A]
[1]; [5]
  4. Phagocytosis (% control): 67.2 % control
[2]; [6]
  4. Phagocytosis (% control): 134.6 % control
[3]; HMC3, compound 10 uM
  1. Cell count (% control): 164.2 % control
  2. Nuclear Area (% Control): 99.9 % Control
  3. Nuclear DNA Intensity (% control): 88.6 % control
[4]; BV2, compound 10 uM
  1. Cell count (% control): 107.1 % control
  2. Nuclear Area (% Control): 104.4 % Control
  3. Nuclear DNA Intensity (% control): 99.5 % control

## O=c1ccc2c(OCCCCOc3ccccc3)c3ccoc3cc2o1 [UNC10302901A]
[1]; [7]
  4. Phagocytosis (% control): 89.9 % control
[2]; [8]
  4. Phagocytosis (% control): 188.1 % control
[3]; HMC3 cells, 10 uM compound
  1. Cell count (% control): 143.5 % control
  2. Nuclear Area (% Control): 101.6 % Control
  3. Nuclear DNA Intensity (% control): 95.5 % control
[4]; BV2 cells, 10 uM compound
  1. Cell count (% control): 138.9 % control
  2. Nuclear Area (% Control): 105.4 % Control
  3. Nuclear DNA Intensity (% control): 102.9 % control

## Cc1cnc(Nc2ccc(F)cc2Cl)nc1-c1c[nH]c(C(=O)N[C@H](CO)c2cccc(Cl)c2)c1 [UNC10302866A]
[1]; [7]
  4. Phagocytosis (% control): 72.8 % control
[2]; [8]
  4. Phagocytosis (% control): 108.3 % control
[3]; HMC3 cells, 10 uM compound
  1. Cell count (% control): 106.8 % control
  2. Nuclear Area (% Control): 98.0 % Control
  3. Nuclear DNA Intensity (% control): 96.6 % control
[4]; BV2 cells, 10 uM compound
  1. Cell count (% control): 83.7 % control
  2. Nuclear Area (% Control): 101.5 % Control
  3. Nuclear DNA Intensity (% control): 113.9 % control

## CCOC(=O)N1CCC(Nc2c(NCCN3CCN(c4cccc(C(F)(F)F)c4)CC3)c(=O)c2=O)CC1 [UNC10302706A]
[1]; [5]
  4. Phagocytosis (% control): 75.0 % control
[2]; [6]
  4. Phagocytosis (% control): 143.2 % control
[3]; HMC3, compound 10 uM
  1. Cell count (% control): 111.8 % control
  2. Nuclear Area (% Control): 102.2 % Control
  3. Nuclear DNA Intensity (% control): 96.9 % control
[4]; BV2, compound 10 uM
  1. Cell count (% control): 117.8 % control
  2. Nuclear Area (% Control): 102.0 % Control
  3. Nuclear DNA Intensity (% control): 95.9 % control

## CN(C)CC#Cc1ccc(OCCCc2sc(N3CCc4cccc(C(=O)Nc5nc6ccccc6s5)c4C3)nc2C(=O)O)c(F)c1 [UNC10302697A]
[1]; [5]
  4. Phagocytosis (% control): 54.1 % control
[2]; [6]
  4. Phagocytosis (% control): 206.2 % control
[3]; HMC3, compound 10 uM
  1. Cell count (% control): 92.7 % control
  2. Nuclear Area (% Control): 89.5 % Control
  3. Nuclear DNA Intensity (% control): 121.7 % control
[4]; BV2, compound 10 uM
  1. Cell count (% control): 84.3 % control
  2. Nuclear Area (% Control): 106.7 % Control
  3. Nuclear DNA Intensity (% control): 111.2 % control

## Cc1cccc(-c2nn3c(c2-c2ccnc4ccc(C(N)=O)cc24)CCC3)n1 [UNC10245080A]
[1]; [7]
  4. Phagocytosis (% control): 85.1 % control
[2]; [8]
  4. Phagocytosis (% control): 174.0 % control
[3]; HMC3 cells, 10 uM compound
  1. Cell count (% control): 126.0 % control
  2. Nuclear Area (% Control): 104.6 % Control
  3. Nuclear DNA Intensity (% control): 85.7 % control
[4]; BV2 cells, 10 uM compound
  1. Cell count (% control): 99.1 % control
  2. Nuclear Area (% Control): 108.1 % Control
  3. Nuclear DNA Intensity (% control): 97.4 % control

## CC(C)(C)c1cnc(CSc2cnc(NC(=O)C3CCNCC3)s2)o1 [UNC10302585A]
[1]; [7]
  4. Phagocytosis (% control): 156.3 % control
[2]; [8]
  4. Phagocytosis (% control): 98.5 % control
[3]; HMC3 cells, 10 uM compound
  1. Cell count (% control): 57.0 % control
  2. Nuclear Area (% Control): 118.9 % Control
  3. Nuclear DNA Intensity (% control): 102.8 % control
[4]; BV2 cells, 10 uM compound
  1. Cell count (% control): 5.4 % control
  2. Nuclear Area (% Control): 123.4 % Control
  3. Nuclear DNA Intensity (% control): 85.3 % control

## CNC(=O)c1c(F)cccc1Nc1nc(Nc2cc3c(cc2OC)CCN3C(=O)CN(C)C)nc2[nH]ccc12 [UNC10302864A]
[1]; [7]
  4. Phagocytosis (% control): 58.3 % control
[2]; [8]
  4. Phagocytosis (% control): 89.4 % control
[3]; HMC3 cells, 10 uM compound
  1. Cell count (% control): 108.9 % control
  2. Nuclear Area (% Control): 90.1 % Control
  3. Nuclear DNA Intensity (% control): 123.0 % control
[4]; BV2 cells, 10 uM compound
  1. Cell count (% control): 66.3 % control
  2. Nuclear Area (% Control): 109.6 % Control
  3. Nuclear DNA Intensity (% control): 102.8 % control

## Br.CCCc1cc(-c2nc(-c3ccc(C)cc3)cs2)ccn1 [UNC10302889A]
[1]; [7]
  4. Phagocytosis (% control): 101.1 % control
[2]; [8]
  4. Phagocytosis (% control): 198.0 % control
[3]; HMC3 cells, 10 uM compound
  1. Cell count (% control): 81.4 % control
  2. Nuclear Area (% Control): 79.1 % Control
  3. Nuclear DNA Intensity (% control): 141.7 % control
[4]; BV2 cells, 10 uM compound
  1. Cell count (% control): 52.9 % control
  2. Nuclear Area (% Control): 97.6 % Control
  3. Nuclear DNA Intensity (% control): 117.7 % control
